Source: patent US20240166612A1, “ARYLTHIOETHER ACETAMIDE AND RELATED COMPOUNDS AND THEIR USE IN TREATING MEDICAL CONDITIONS” (X-Biotix Therapeutics, Inc., priority 2021, published 2024)
pIC50: −log10 of the molar value. Values after ≈ are worked out from the molar mass of the structure shown.

Key:
[1] = molecular target: T1, recombinant LpxA enzyme (P. aeruginosa) (Pseudomonas aeruginosa, UniProt Q9X6P4); assay: LpxA in vitro substrate acylation assay with RapidFire MS analysis (P. aeruginosa); assay type: biochemical; conditions: P. aeruginosa enzyme 0.5 nM, PaACP-C10, 30 min
T1 sequence (Q9X6P4 1-258): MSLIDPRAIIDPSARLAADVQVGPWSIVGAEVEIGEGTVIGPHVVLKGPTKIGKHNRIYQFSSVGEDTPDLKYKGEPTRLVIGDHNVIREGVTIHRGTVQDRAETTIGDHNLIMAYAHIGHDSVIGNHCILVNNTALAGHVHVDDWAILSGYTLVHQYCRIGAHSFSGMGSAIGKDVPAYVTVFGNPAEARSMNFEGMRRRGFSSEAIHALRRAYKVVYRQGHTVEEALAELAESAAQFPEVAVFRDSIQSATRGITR
Experimental: Exemplary compounds from the above Examples were tested for ability to inhibit LpxA activity using an in vitro substrate acylation assay with RapidFire™ MS analysis. Assay procedures and results are described below.
Reactions were carried out in a final volume of 30 μL with 25 mM HEPES (pH 7.3), 150 mM NaCl, 2 mM DTT, 0.01% BSA, 5 μM UDP-GlcNac, recombinant LpxA enzyme (0.5 nM P. aeruginosa or 1.0 nM E. coli, both produced at Evotec), 0.5 μM acyl-transfer reagent (decanoyl P. aeruginosa acyl-carrier protein [PaACP-C10] or myristoyl E. coli acyl-carrier protein [EcACP-C1-4], both produced at Evotec), and 1% DMSO containing test compound. After 30 min incubation at room temperature, reactions were stopped by addition of 30 μL of 10% TCA in water.
Samples were centrifuged (4350 rpm, 4° C., 5 min), and then subjected to RapidFire™ MS analysis on an Agilent RapidFire 300 coupled to an Agilent 6460 triple-quadrupole mass spectrometer. Analytes were retained on a C4 (type A) cartridge using the following solvents and flow rates: • Pump 1—H2O with 5 mM NH4OAc at 2.0 mL/min, • Pump 2—MeOH/H2O (90/10) at 1.5 mL/min, • Pump 3—MeOH/H2O (90/10) at 0.5 mL/min, and • Pump 4—ACN (organic)/H2O (aqueous). Substrate and product of the reaction were detected in negative mode ESI-MS/MS by MRM (multiple reaction monitoring) of transitions 606.0/385.0 (UDP-GlcNAc substrate) and 776.2/385.0 (UDP-3-O—(R-3-hydroxydecanoyl)-GlcNAc product, for P. aeruginosa LpxA assay) or 832.2/385.0 (UDP-3-O—(R-3-hydroxymyristoyl)-GlcNAc product, for E. coli LpxA assay).
For IC50 determinations, peak areas of the substrate and product were compared to compute the proportion of product formed by the LpxA enzyme at each compound concentration.

[2] = system: Wild-type P. aeruginosa PAO1; assay: Broth microdilution MIC, wild-type P. aeruginosa PAO1; assay type: cell-based; conditions: Pseudomonas aeruginosa; wild-type P. aeruginosa PAO1, 37° C., 18 h; read-out: PAO1 WT MIC
Experimental: (§1) Exemplary compounds from the above Examples were tested to determine their minimum inhibitory concentration (MIC) for exemplary strains of Escherichia and Pseudomonas bacteria using broth microdilution methods. Assay procedures and results are described below.
(§2) Broth microdilution assays were conducted according to Clinical and Laboratory Standards Institute guidelines (CLSI, M07-A^11: Clinical and Laboratory Standards Institute. Methods for Dilution Antimicrobial Susceptibility Tests for Bacteria that Grow Aerobically; Approved Standard-11th Edition. Wayne, PA: CLSI, 2018). Briefly, bacterial suspensions were adjusted to a density equivalent to a 0.5 McFarland standard and diluted in sterile, cation-adjusted Mueller-Hinton broth (Beckton Dickinson) to yield a final inoculum between 2×10^5 and 8×10^5 colony-forming units (CFU)/mL. An inoculum volume of 98 μL was added to wells containing 2 μL of 2-fold serial dilutions of drug (prepared in DMSO). All inoculated microdilution trays were incubated in ambient air at 37° C. for 18 h. […] Performance of the assay was monitored by the use of laboratory quality-control strains (S. aureus ATCC 29213 and P. aeruginosa ATCC 27853) and levofloxacin, a compound with a defined MIC spectrum, in accordance with CLSI guidelines (CLSI, M100Ed29: Clinical and Laboratory Standards Institute. Performance Standards for Antimicrobial Susceptibility Testing, 29th Edition. Wayne, PA: CLSI, 2018).
(§3) Multiple enterobacteriaceae strains were tested, including both wild-type strains and multi-drug resistance pump deficient mutants. Specific strains tested included the following: • Wild-type P. aeruginosa PAO1, • P. aeruginosa PAO1 ΔmexABoprM—Disabled multi-drug efflux system Δ(MexAB-OprM), • P. aeruginosa PAO397—PAO1Δ(mexAB-oprM) Δ(mexCD-oprJ) Δ(mexEF-oprN) Δ(mexJK) Δ(mexXY) ΔopmH, • P. aeruginosa LESB58—Clinical isolate; colistin-resistant, isolated in the United Kingdom in 1988 from a patient with cystic fibrosis • E. coli JW0452-3 (BW25113 JacrA::kan)—Disabled multi-drug efflux system (AcrAB-TolC).
(§4) Experimental results are provided in Table 11, which provides MIC values for wild-type P. aeruginosa PAO1 (“PAO1 WT MIC”), P. aeruginosa PAO ΔmexABoprM (“PAO1 KO MIC”), P. aeruginosa PAO397 (“PAO397 KO MIC”), P. aeruginosa LESB58 (“LESB58”), and E. coli JW0452-3 (BW25113 JacrA::kan) (“E. coli KO MIC”).

[3] = system: P. aeruginosa LESB58; assay: Broth microdilution MIC, P. aeruginosa LESB58; assay type: cell-based; conditions: Pseudomonas aeruginosa; P. aeruginosa LESB58 clinical isolate, colistin-resistant, 37° C., 18 h
Experimental: as §1, §2, §3, §4

**Q.** `[2H]C([2H])(Oc1ccccc1C([2H])([2H])C([2H])([2H])[2H])C(=O)N(Cc1nnc(N)o1)Cc1ccc([N+](=O)[O-])cc1F` [compound 92] was tested. Which pIC50 [1] did it give?
**A.** 7.00 to 7.70

**Q.** And the MIC [2]?
**A.** > 64 µg/mL

**Q.** What about the MIC [3] of the same compound?
**A.** 16 to 64 µg/mL (≈ 36.7 to 147 µM)

**Q.** `[2H]C([2H])(Oc1ccccc1C([2H])([2H])C([2H])([2H])[2H])C(=O)N(Cc1ccc([N+](=O)[O-])cc1)Cc1nnc(N)o1` [compound 93] was tested. Which pIC50 [1] did it give?
**A.** 7.00 to 7.70

**Q.** What about the MIC [2] of the same compound?
**A.** > 64 µg/mL

**Q.** What about the MIC [3] of the same compound?
**A.** > 64 µg/mL

**Q.** What does the source list for `CCc1c(F)cc(F)cc1OCC(=O)N(Cc1ccc([N+](=O)[O-])cc1)Cc1nnc(N)o1` [compound 95]?
**A.** pIC50 [1]: > 7.70; MIC [2]: 16 to 64 µg/mL (≈ 35.8 to 143 µM); MIC [3]: 1 to 16 µg/mL (≈ 2.24 to 35.8 µM)

**Q.** With `N#Cc1ccc(CN(Cc2nnc(N)o2)C(=O)COc2cc(F)cc(F)c2Br)c(F)c1` [compound 96] as the compound, how does the pIC50 [1] read?
**A.** > 7.70

**Q.** What about the MIC [2] of the same compound?
**A.** 16 to 64 µg/mL (≈ 32.2 to 129 µM)

**Q.** And the MIC [3]?
**A.** 1 to 16 µg/mL (≈ 2.02 to 32.2 µM)

**Q.** Which results are given for `N#Cc1ccc(CN(Cc2nnc(N)o2)C(=O)c2cc3cccc(Cl)c3s2)c(F)c1` [compound 97]?
**A.** pIC50 [1]: < 6.00; MIC [2]: > 64 µg/mL; MIC [3]: > 64 µg/mL

**Q.** What does the source list for `N#Cc1ccc(CN(CC(=O)N2CCOC[C@@H]2CN)C(=O)CSc2cc(F)cc(F)c2Cl)c(F)c1` [compound 106]?
**A.** pIC50 [1]: < 6.00; MIC [2]: > 64 µg/mL; MIC [3]: > 64 µg/mL

**Q.** With `N#Cc1ccc(CN(CC(=O)N[C@@H](CN)C(=O)O)C(=O)CSc2cc(F)cc(F)c2Cl)c(F)c1` [compound 107] as the compound, how does the pIC50 [1] read?
**A.** 6.00 to 7.00

**Q.** What about the MIC [2] of the same compound?
**A.** > 64 µg/mL

**Q.** And the MIC [3]?
**A.** > 64 µg/mL

**Q.** `CCc1cccc(OCC(=O)N(Cc2nnc(N)o2)Cc2ccc(C#N)cc2F)c1` [compound 110] was tested. Which pIC50 [1] did it give?
**A.** 6.00 to 7.00

**Q.** And the MIC [2]?
**A.** > 64 µg/mL

**Q.** And the MIC [3]?
**A.** > 64 µg/mL

**Q.** Which results are given for `[2H]CC([2H])c1c(F)cc(F)cc1OCC(=O)N(Cc1nnc(N)o1)Cc1ccc(C#N)cc1F` (centres unmarked) [compound 112]?
**A.** MIC [2]: 1 to 16 µg/mL (≈ 2.24 to 35.8 µM); MIC [3]: 1 to 16 µg/mL (≈ 2.24 to 35.8 µM)

**Q.** `[2H]C([2H])C([2H])([2H])c1ccccc1OCC(=O)N(Cc1nnc(N)o1)Cc1ccc(C#N)cc1F` [compound 113] was tested. Which MIC [2] did it give?
**A.** > 64 µg/mL

**Q.** And the MIC [3]?
**A.** 16 to 64 µg/mL (≈ 38.7 to 155 µM)

**Q.** For `[2H]C([2H])(Oc1ccccc1C([2H])([2H])C([2H])([2H])[2H])C(=O)N(Cc1nnc(N)o1)Cc1ccc(C#N)cc1F` [compound 114], which MIC [2] is on record?
**A.** > 64 µg/mL

**Q.** And the MIC [3]?
**A.** 16 to 64 µg/mL (≈ 38.4 to 154 µM)

**Q.** What does the source list for `N#Cc1ccc(CN(Cc2nnc(O)o2)C(=O)CSc2cc(OCCN)ccc2Cl)c(F)c1` [compound 116]?
**A.** pIC50 [1]: < 6.00; MIC [2]: > 64 µg/mL; MIC [3]: > 64 µg/mL

**Q.** `C[C@H](Oc1ccccc1Cl)C(=O)N(Cc1ccc(C#N)cc1)Cc1nnc(N)o1` [compound 117] was tested. Which pIC50 [1] did it give?
**A.** < 6.00

**Q.** With `N#Cc1ccc(CN(Cc2nnc(N)o2)C(=O)CSc2ccccc2CC(F)(F)F)c(F)c1` [compound 118] as the compound, how does the MIC [2] read?
**A.** > 64 µg/mL

**Q.** What about the MIC [3] of the same compound?
**A.** > 64 µg/mL

**Q.** With `NCCOc1ccc(Cl)c(SCC(=O)N(Cc2ccc(C(N)=O)c(C(=O)O)c2)Cc2nnc(N)o2)c1` [compound 119] as the compound, how does the pIC50 [1] read?
**A.** < 6.00

**Q.** How did the MIC [2] turn out when `Nc1nnc(CN(Cc2ccc(S(N)(=O)=O)cc2)C(=O)COc2cc(F)cc(F)c2Cl)o1` [compound 120] was run?
**A.** > 64 µg/mL

**Q.** What about the MIC [3] of the same compound?
**A.** 16 to 64 µg/mL (≈ 32.8 to 131 µM)

**Q.** With `N#Cc1ccc(CN(Cc2nnc(N)o2)C(=O)COc2ccc(F)cc2Cl)c(F)c1` [compound 121] as the compound, how does the MIC [2] read?
**A.** > 64 µg/mL

**Q.** What about the MIC [3] of the same compound?
**A.** > 64 µg/mL
